For one molecule, melting point results are on record in patent publication US7485661B2, “Heterobicyclic pyrazole derivatives as kinase inhibitors” (Pfizer Italia S.r.l., priority 2005, dated 2009).

As a reminder, the melting point is the temperature of the solid-liquid transition. Molecule `CCOC(=O)c1cc2[nH]nc(N)c2s1` [Compound 6, Ethyl 3-amino-1H-thieno[3,2-c]pyrazole-5-carboxylate] had a melting point of 231 to 233 °C.
